Reference: ChEMBL document CHEMBL1155899, “Cucurbitane-type triterpenoids from the stems of momordica charantia” (J Nat Prod, 2008)

The compounds below were run on SK-HEP1 (assay: Cytotoxicity against human SK-Hep1 cells by MTT assay).
Assay type: functional, cell-based
Compound `CO[C@H]1C=C2[C@@H](CC[C@H](O)C2(C)C)[C@]2(C)CC[C@]3(C)[C@@H]([C@H](C)C/C=C/C(C)(C)O)CC[C@@]3(C)[C@H]12` has an IC50 greater than 100 µM.
With `C[C@H](C/C=C/C(C)(C)O)[C@H]1CC[C@@]2(C)[C@@H]3[C@@H](O)C=C4[C@@H](CC[C@H](O)C4(C)C)[C@]3(C)CC[C@]12C` the IC50 was greater than 100 µM.
`CO[C@H]1C=C2[C@@H](CC[C@H](OC(C)=O)C2(C)C)[C@]2(C)CC[C@]3(C)[C@@H]([C@H](C)C/C=C/C(C)(C)O)CC[C@@]3(C)[C@H]12` showed an IC50 greater than 100 µM.
Work on `C[C@H](C/C=C/C(C)(C)O)[C@H]1CC[C@@]2(C)[C@@H]3C=CC4=C(CC[C@H](O)C4(C)C)[C@]3(C)CC[C@]12C` yielded an IC50 greater than 100 µM.
Compound `C[C@H](C/C=C/C(C)(C)O)[C@H]1CC[C@@]2(C)[C@@H]3[C@@H](O)C=C4[C@@H](CC[C@H](O)C4(C)C)[C@]3(C=O)CC[C@]12C` has an IC50 of 98.3 µM.
`COC(C)(C)/C=C/C[C@@H](C)[C@H]1CC[C@@]2(C)[C@@H]3[C@@H](O)C=C4[C@@H](CC[C@H](O)C4(C)C)[C@]3(C=O)CC[C@]12C` showed an IC50 of 91.6 µM.
For `CO[C@H]1C=C2[C@@H](CC[C@H](O)C2(C)C)[C@]2(C)CC[C@]3(C)[C@@H]([C@H](C)C/C=C/C(C)(C)OC)CC[C@@]3(C)[C@H]12`, the IC50 was greater than 100 µM.
`CC(C)=CC(=O)C[C@@H](C)[C@H]1CC[C@@]2(C)[C@@H]3C(=O)C=C4[C@@H](CCC(=O)C4(C)C)[C@]3(C)CC[C@]12C` was tested, and the IC50 was greater than 100 µM.
`COc1cc([C@@H]2c3cc4c(cc3[C@@H](O[C@@H]3O[C@@H]5CO[C@@H](C)O[C@H]5[C@H](O)[C@H]3O)[C@H]3COC(=O)[C@H]23)OCO4)cc(OC)c1O` [ETOPOSIDE] gave an IC50 of 49.6 µM.
